According to patent US20140000882A1, “PETROLEUM RECOVERY PROCESS AND SYSTEM” (Shell Oil Company, priority 2012, published 2014):

Experiment: Oil recovery from formation core by brine displacement followed by DMS displacement
Settings: after waterflooding with brine
Procedure: Incremental recovery of oil from a formation core using an oil recovery formulation consisting of dimethyl sulfide following oil recovery from the core by water-flooding was measured to evaluate the effectiveness of DMS as a tertiary oil recovery agent.
Two 5.02 cm long Berea sandstone cores with a core diameter of 3.78 cm and a permeability between 925 and 1325 mD were saturated with a brine having a composition as set forth in Table 7.
After saturation of the cores with brine, the brine was displaced by a Middle Eastern Asphaltic crude oil having the characteristics as set forth above in Table 3 to saturate the cores with oil.
Oil was recovered from each oil saturated core by the addition of brine to the core under pressure and by subsequent addition of DMS to the core under pressure. Each core was treated as follows to determine the amount of oil recovered from the core by addition of brine followed by addition of DMS. Oil was initially displaced from the core by addition of brine to the core under pressure. A confining pressure of 1 MPa was applied to the core during addition of the brine, and the flow rate of brine to the core was set at 0.05 ml/min. The core was maintained at a temperature of 50° C. during displacement of oil from the core with brine. […]

oil remaining in the core after the waterflood recovered: approximately 60%
SMILES: CSC [Dimethyl Sulfide, dimethyl sulfide]
